Laboratory results published in patent US10758534B2 (Vertex Pharmaceuticals Incorporated, priority 2014, dated 2020).

Biological target: T1, F508del (Homo sapiens, UniProt P13569, DEL508-508)
T1 construct: expressed in transfected cells
Assay: Protocol 1: membrane potential optical assay (FLIPR III, voltage sensing dye), identification of potentiator compounds
Assay type: cell-based
Settings: Table 3, compounds of Table 1
Method in brief: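 Read-out: change in voltage-sensing dye fluorescence (FLIPR III) as a measure of F508del conductance. Temperature-corrected (27° C, 24 hrs) NIH 3T3 cells expressing F508del are pretreated with potentiators, dye-loaded, then stimulated with forskolin under a chloride ion gradient using chloride-free gluconate bath.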

T1 sequence (P13569 with tags, fused parts or gaps DEL508-508): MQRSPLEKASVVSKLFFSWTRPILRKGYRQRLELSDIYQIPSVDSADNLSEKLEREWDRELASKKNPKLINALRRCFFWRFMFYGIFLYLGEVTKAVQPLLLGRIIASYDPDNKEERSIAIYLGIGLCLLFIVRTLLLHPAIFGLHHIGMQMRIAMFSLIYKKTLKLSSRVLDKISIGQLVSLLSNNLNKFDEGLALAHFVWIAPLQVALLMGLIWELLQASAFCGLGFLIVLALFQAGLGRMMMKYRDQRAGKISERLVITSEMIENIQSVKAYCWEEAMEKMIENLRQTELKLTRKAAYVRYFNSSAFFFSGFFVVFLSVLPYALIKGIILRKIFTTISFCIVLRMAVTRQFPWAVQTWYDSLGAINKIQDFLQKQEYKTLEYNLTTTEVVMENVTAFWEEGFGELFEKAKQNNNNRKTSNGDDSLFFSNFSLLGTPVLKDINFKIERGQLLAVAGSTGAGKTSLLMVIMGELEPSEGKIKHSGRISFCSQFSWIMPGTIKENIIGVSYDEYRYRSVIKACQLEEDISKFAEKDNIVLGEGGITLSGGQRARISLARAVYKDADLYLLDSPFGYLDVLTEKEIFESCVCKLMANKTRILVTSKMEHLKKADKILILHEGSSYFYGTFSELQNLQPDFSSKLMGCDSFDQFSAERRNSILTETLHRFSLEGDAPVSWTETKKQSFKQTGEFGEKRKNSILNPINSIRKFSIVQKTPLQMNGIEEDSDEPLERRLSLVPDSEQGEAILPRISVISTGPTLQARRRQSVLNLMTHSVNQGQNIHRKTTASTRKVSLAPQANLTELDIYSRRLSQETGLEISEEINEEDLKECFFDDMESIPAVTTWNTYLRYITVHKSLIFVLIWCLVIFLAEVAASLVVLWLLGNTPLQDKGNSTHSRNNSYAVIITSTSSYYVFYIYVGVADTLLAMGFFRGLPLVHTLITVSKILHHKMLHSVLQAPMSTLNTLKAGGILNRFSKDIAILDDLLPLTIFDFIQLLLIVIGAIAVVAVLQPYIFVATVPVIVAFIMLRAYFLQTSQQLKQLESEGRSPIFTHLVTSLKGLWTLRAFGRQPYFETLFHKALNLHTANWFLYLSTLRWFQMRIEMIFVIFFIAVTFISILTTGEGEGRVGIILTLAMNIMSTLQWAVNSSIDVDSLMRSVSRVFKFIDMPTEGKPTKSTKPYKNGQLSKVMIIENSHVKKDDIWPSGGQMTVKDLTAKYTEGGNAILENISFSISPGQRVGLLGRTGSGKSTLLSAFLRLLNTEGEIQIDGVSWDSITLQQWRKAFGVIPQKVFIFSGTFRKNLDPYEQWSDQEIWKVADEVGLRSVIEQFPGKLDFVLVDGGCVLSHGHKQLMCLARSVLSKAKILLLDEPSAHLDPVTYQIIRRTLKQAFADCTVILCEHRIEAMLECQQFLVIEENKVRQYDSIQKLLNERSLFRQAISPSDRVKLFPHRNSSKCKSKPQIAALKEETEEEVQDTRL

Row | SMILES | EC30
1 | CC(C)COc1cc(F)cc(-c2ccc(C(=O)NS(=O)(=O)c3cccc(N)n3)c(OC3C[C@@H]4C[C@@H]4C3)n2)c1 (stereo partly drawn) [Compound 1077, N-[(6-amino-2-pyridyl)sulfonyl]-2-[[(1R,5S)-3-bicyclo[3.1.0]hexanyl]oxy]-6-(3-fluoro-5-isobutoxy-phenyl)pyridine-3-carboxamide] | +++ (“+++” means <3 uM)
2 | Cc1ccc(-c2ccc(C(=O)NS(=O)(=O)c3cccc(N)n3)c(N3[C@H](C)CC[C@@H]3C)n2)cc1 [Compound 1078, N-[(6-amino-2-pyridyl)sulfonyl]-2-[(2R,5S)-2,5-dimethylpyrrolidin-1-yl]-6-(p-tolyl)pyridine-3-carboxamide] | ++ (“++” means between 3 uM and 10 uM)
3 | Cc1cc(C)c(Oc2nc(-c3ccc(OCC(C)C)cc3)ccc2C(=O)NS(=O)(=O)c2ccc[nH]c2=O)c(C)c1 [Compound 1079, 6-(4-isobutoxyphenyl)-N-[(2-oxo-1H-pyridin-3-yl)sulfonyl]-2-(2,4,6-trimethylphenoxy)pyridine-3-carboxamide] | +++ (“+++” means <3 uM)
4 | CC(C)Oc1ccc(-c2ccc(C(=O)NS(=O)(=O)c3cccc(N)n3)c(N3CCC(Oc4ccccc4)CC3)n2)cn1 [Compound 1080, N-[(6-amino-2-pyridyl)sulfonyl]-6-(6-isopropoxy-3-pyridyl)-2-(4-phenoxy-1-piperidyl)pyridine-3-carboxamide] | +++ (“+++” means <3 uM)
5 | CC(C)Oc1ccc(-c2ccc(C(=O)NS(=O)(=O)c3cccc(N)n3)c(N3CC[C@H](C)C3)n2)cn1 [Compound 1081, N-[(6-amino-2-pyridyl)sulfonyl]-6-(6-isopropoxy-3-pyridyl)-2-[(3S)-3-methylpyrrolidin-1-yl]pyridine-3-carboxamide] | ++ (“++” means between 3 uM and 10 uM)
6 | Cc1cc(C)c(Cn2c(C(=O)NS(=O)(=O)c3cccc(N)c3)cc3ccc(C#N)cc32)c(C)c1 [Compound 1082, N-(3-aminophenyl)sulfonyl-6-cyano-1-[(2,4,6-trimethylphenyl)methyl]indole-2-carboxamide] | + (“+” means greater than 10 uM)
7 | CC(C)COc1cc(F)cc(-c2ccc(C(=O)NS(=O)(=O)c3ccn[nH]3)c(N3CCC(C)CC3)n2)c1 [Compound 1083, 6-(3-fluoro-5-isobutoxy-phenyl)-2-(4-methyl-1-piperidyl)-N-(1H-pyrazol-5-ylsulfonyl)pyridine-3-carboxamide] | +++ (“+++” means <3 uM)
8 | Cc1ccc(-c2ccc(C(=O)NS(=O)(=O)c3nccnc3N)c(N3CCC(C)CC3)n2)cc1 [Compound 1084, N-(3-aminopyrazin-2-yl)sulfonyl-2-(4-methyl-1-piperidyl)-6-(p-tolyl)pyridine-3-carboxamide] | ++ (“++” means between 3 uM and 10 uM)
9 | Cc1cc(C)c(CN2C(C(=O)NS(=O)(=O)c3ccc[nH]c3=O)c3ccccc3C2(C)C)c(C)c1 (centres unmarked) [Compound 1085, 3,3-dimethyl-N-[(2-oxo-1H-pyridin-3-yl)sulfonyl]-2-[(2,4,6-trimethylphenyl)methyl]isoindoline-1-carboxamide] | +++ (“+++” means <3 uM)
10 | CCc1cccc2c(C(=O)NS(=O)(=O)c3cccc(N)n3)n(Cc3c(C)cc(C)cc3C)nc12 [Compound 1086, N-[(6-amino-2-pyridyl)sulfonyl]-7-ethyl-2-[(2,4,6-trimethylphenyl)methyl]indazole-3-carboxamide] | ++ (“++” means between 3 uM and 10 uM)
11 | CCC1CCCN1c1nc(-c2ccc(OC(C)C)nc2)ccc1C(=O)NS(=O)(=O)c1cccc(N)n1 (centres unmarked) [Compound 1087, N-[(6-amino-2-pyridyl)sulfonyl]-2-(2-ethylpyrrolidin-1-yl)-6-(6-isopropoxy-3-pyridyl)pyridine-3-carboxamide] | +++ (“+++” means <3 uM)
12 | CC(C)COc1cc(F)cc(-c2ccc(C(=O)NS(=O)(=O)c3ccn[nH]3)c(N3CCC(OCC4CC4)CC3)n2)c1 [Compound 1088, 2-[4-(cyclopropylmethoxy)-1-piperidyl]-6-(3-fluoro-5-isobutoxy-phenyl)-N-(1H-pyrazol-5-ylsulfonyl)pyridine-3-carboxamide] | +++ (“+++” means <3 uM)
13 | Cc1cc(C#N)cc(C)c1Oc1nc(C(C)(C)C)ccc1C(=O)NS(=O)(=O)c1cccc(N)n1 [Compound 1089, N-[(6-amino-2-pyridyl)sulfonyl]-6-tert-butyl-2-(4-cyano-2,6-dimethyl-phenoxy)pyridine-3-carboxamide] | +++ (“+++” means <3 uM)
14 | COc1cccc(S(=O)(=O)NC(=O)c2ccc(-c3cc(F)cc(OCC(C)C)c3)nc2N2CCC(C)(C)CC2)n1 [Compound 1090, 2-(4,4-dimethyl-1-piperidyl)-6-(3-fluoro-5-isobutoxy-phenyl)-N-[(6-methoxy-2-pyridyl)sulfonyl]pyridine-3-carboxamide] | +++ (“+++” means <3 uM)
15 | Cc1cc(C)c(Oc2nc(C3CCC(C)(C)CC3)ccc2C(=O)NS(=O)(=O)c2ccc[nH]c2=O)c(C)c1 [Compound 1091, 6-(4,4-dimethylcyclohexyl)-N-[(2-oxo-1H-pyridin-3-yl)sulfonyl]-2-(2,4,6-trimethylphenoxy)pyridine-3-carboxamide] | +++ (“+++” means <3 uM)
16 | CC(C)Oc1ccc(-c2ccc(C(=O)NS(=O)(=O)c3cccc(N)n3)c(N3CCC(Oc4ccccc4)C3)n2)cn1 (centres unmarked) [Compound 1092, N-[(6-amino-2-pyridyl)sulfonyl]-6-(6-isopropoxy-3-pyridyl)-2-(3-phenoxypyrrolidin-1-yl)pyridine-3-carboxamide] | ++ (“++” means between 3 uM and 10 uM)
17 | Cc1cc(C)c(CN2CCc3ccccc3CC2C(=O)NS(=O)(=O)c2ccccn2)c(C)c1 (centres unmarked) [Compound 1093, N-(2-pyridylsulfonyl)-3-[(2,4,6-trimethylphenyl)methyl]-1,2,4,5-tetrahydro-3-benzazepine-4-carboxamide] | ++ (“++” means between 3 uM and 10 uM)
18 | CC(C)COc1ccc(-c2ccc(C(=O)NS(=O)(=O)c3cccc(N)n3)c(N3CCC(C)CC3)n2)cc1 [Compound 1094, N-[(6-amino-2-pyridyl)sulfonyl]-6-(4-isobutoxyphenyl)-2-(4-methyl-1-piperidyl)pyridine-3-carboxamide] | +++ (“+++” means <3 uM)
19 | Cc1cc(C)c(Oc2nc(-c3cccc(Cl)c3)ccc2C(=O)NS(=O)(=O)c2ccc[nH]c2=O)c(C)c1 [Compound 1095, 6-(3-chlorophenyl)-N-[(2-oxo-1H-pyridin-3-yl)sulfonyl]-2-(2,4,6-trimethylphenoxy)pyridine-3-carboxamide] | ++ (“++” means between 3 uM and 10 uM)
20 | CCOc1cc(F)cc(-c2ccc(C(=O)NS(=O)(=O)c3ccc[nH]c3=O)c(N3[C@H](C)CC[C@@H]3C)n2)c1 [Compound 1096, 2-[(2R,5S)-2,5-dimethylpyrrolidin-1-yl]-6-(3-ethoxy-5-fluoro-phenyl)-N-[(2-oxo-1H-pyridin-3-yl)sulfonyl]pyridine-3-carboxamide] | ++ (“++” means between 3 uM and 10 uM)
21 | CC(C)COc1cc(F)cc(-c2ccc(C(=O)NS(=O)(=O)c3cccc(N)n3)c(N3CCC[C@H]3C(C)(C)C)n2)c1 [Compound 1097, N-[(6-amino-2-pyridyl)sulfonyl]-2-[(2S)-2-tert-butylpyrrolidin-1-yl]-6-(3-fluoro-5-isobutoxy-phenyl)pyridine-3-carboxamide] | +++ (“+++” means <3 uM)
22 | CC(C)COc1cc(F)cc(-c2ccc(C(=O)NS(=O)(=O)c3cccc(N)n3)c(N3CCCC(C(C)C)C3)n2)c1 (centres unmarked) [Compound 1098, N-[(6-amino-2-pyridyl)sulfonyl]-6-(3-fluoro-5-isobutoxy-phenyl)-2-(3-isopropyl-1-piperidyl)pyridine-3-carboxamide] | +++ (“+++” means <3 uM)
23 | CCOc1cc(F)cc(-c2ccc(C(=O)NS(=O)(=O)c3cccc(N)n3)c(N3CC(C)CC3(C)C)n2)c1 (centres unmarked) [Compound 1099, N-[(6-amino-2-pyridyl)sulfonyl]-6-(3-ethoxy-5-fluoro-phenyl)-2-(2,2,4-trimethylpyrrolidin-1-yl)pyridine-3-carboxamide] | +++ (“+++” means <3 uM)
24 | CC1CN(c2nc(-c3ccc(Cl)cc3)ccc2C(=O)NS(=O)(=O)c2cccc(N)n2)C(C)(C)C1 (centres unmarked) [Compound 1100, N-[(6-amino-2-pyridyl)sulfonyl]-6-(4-chlorophenyl)-2-(2,2,4-trimethylpyrrolidin-1-yl)pyridine-3-carboxamide] | +++ (“+++” means <3 uM)
25 | Cc1cc(C)c(CN2C(C(=O)NS(=O)(=O)c3cccc(N)n3)c3ccccc3C2(C)C)c(C)c1 (centres unmarked) [Compound 1101, N-[(6-amino-2-pyridyl)sulfonyl]-3,3-dimethyl-2-[(2,4,6-trimethylphenyl)methyl]isoindoline-1-carboxamide] | +++ (“+++” means <3 uM)
26 | Cc1cc(C)c(Oc2nc(-c3ccccc3)cc(C)c2C(=O)NS(=O)(=O)c2cccc(N)n2)c(C)c1 [Compound 1102, N-[(6-amino-2-pyridyl)sulfonyl]-4-methyl-6-phenyl-2-(2,4,6-trimethylphenoxy)pyridine-3-carboxamide] | +++ (“+++” means <3 uM)
27 | Cc1cc(C)c(Oc2nc(-c3cnn(CC(C)C)c3)ccc2C(=O)NS(=O)(=O)c2nccnc2N)c(C)c1 [Compound 1103, N-(3-aminopyrazin-2-yl)sulfonyl-6-(1-isobutylpyrazol-4-yl)-2-(2,4,6-trimethylphenoxy)pyridine-3-carboxamide] | +++ (“+++” means <3 uM)
28 | Cc1cc(F)ccc1Oc1nc(C(C)(C)C)ccc1C(=O)NS(=O)(=O)c1cccc(N)n1 [Compound 1104, N-[(6-amino-2-pyridyl)sulfonyl]-6-tert-butyl-2-(4-fluoro-2-methyl-phenoxy)pyridine-3-carboxamide] | +++ (“+++” means <3 uM)
29 | Cc1cc(C)c(Oc2nc(-c3cccc(OCC4CC4)c3)ccc2C(=O)NS(=O)(=O)c2ccc[nH]c2=O)c(C)c1 [Compound 1105, 6-[3-(cyclopropylmethoxy)phenyl]-N-[(2-oxo-1H-pyridin-3-yl)sulfonyl]-2-(2,4,6-trimethylphenoxy)pyridine-3-carboxamide] | + (“+” means greater than 10 uM)
